According to article PMC11802874, “The hypolipidemic effect of MI-883, the combined CAR agonist/ PXR antagonist, in diet-induced hypercholesterolemia model” (Nature Communications, 2025):
Values joined by “and” are separate entries in the source; they are usually repeats but may differ in a detail not shown here. Equal entries are not always repeated.

What was measured:
hERG potassium channel = hERG potassium channel (Homo sapiens, UniProt Q12809); assay: Thallium flux FLIPR-based hERG assay; assay type: cell-based
Description: Thallium flux FLIPR-based assay for the identification of hERG potassium channel inhibition

Human recombinant CYP2B6 = molecular target: T1, Human recombinant CYP2B6 (Homo sapiens, UniProt P20813); assay: CYP450-Glo CYP2B6 enzymatic activity assay; assay type: biochemical; details: for Inhibition assays, CYP2B6 activity (replicates): log[Agonist]
T1 construct: purchased Promega; host or cells: baculovirus-infected insect cells
T1 sequence (P20813 1-491): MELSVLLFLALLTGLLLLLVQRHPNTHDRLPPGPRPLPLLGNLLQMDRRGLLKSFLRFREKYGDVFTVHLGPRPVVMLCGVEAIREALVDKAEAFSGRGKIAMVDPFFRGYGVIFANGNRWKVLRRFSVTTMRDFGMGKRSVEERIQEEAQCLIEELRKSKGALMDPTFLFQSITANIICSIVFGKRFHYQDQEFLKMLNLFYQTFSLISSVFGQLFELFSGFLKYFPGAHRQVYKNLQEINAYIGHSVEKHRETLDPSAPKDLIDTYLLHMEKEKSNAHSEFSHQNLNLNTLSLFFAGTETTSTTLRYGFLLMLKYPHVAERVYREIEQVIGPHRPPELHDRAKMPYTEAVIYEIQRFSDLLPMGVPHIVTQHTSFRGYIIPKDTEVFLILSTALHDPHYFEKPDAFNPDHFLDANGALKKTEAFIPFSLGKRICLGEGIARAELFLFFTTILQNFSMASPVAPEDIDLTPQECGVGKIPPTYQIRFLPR
Description: Data are presented as means±S.D. from three independent measurements.

[1] = molecular target: T2, mutant PXR LBD (S208W/S247W/C284W) (Homo sapiens, UniProt O75469, C284W/S208W/S247W); assay: CYP3A4 reporter assay with LBP-obstructed mutant PXR in HepG2 cells; assay type: cell-based; details: HepG2, 24 h
T2 construct: expressed in transfected cells; host or cells: HepG2
Description: The luciferase reporter plasmid was used together with the human wild-type PXR expression vector or with expression vectors with mutated PXR LBD (Fig. 1j).

PXR/MED1 = molecular target: T3, PXR/MED1 (Homo sapiens, UniProt O75469); assay: Mammalian two-hybrid PXR/coactivator MED1 recruitment, HepG2; assay type: cell-based; parameters: key: firefly/Metridia luciferase activity ratio (normalized)
T3 construct: PXR-LBD (residues 108–434); expressed in transfected cells; host or cells: HepG2
Method: The GAL4-dependent pGL4-G5, harboring a pentamer of GAL4 binding sites in front of the E1b promoter was described before.
Transient batch transfection of HepG2 cells was done as described above. […] All transfections included 0.01 µg pMetLuc2control per well for normalization of firefly luciferase reporter activities. After overnight incubation with the transfection mixtures, cells were treated with chemicals in a volume of 100 µl of cell culture medium. […] Firefly luciferase activity was measured in 10 µl of cell lysates, and Metridia luciferase activity was analyzed in 10 µl of medium supernatant, both as described before. Results were normalized by dividing firefly luciferase activity by Metridia luciferase activity measured from the same well. Measurements of samples were repeated several times (n ≥ 3).

[2] = Metabolic stability in human liver S9 fraction
Method: Shimadzu HPLC system including vacuum degasser, gradient pumps, reverse phase HPLC column, column oven, and autosampler with an API 4000 QTRAP mass spectrometer (Applied Biosystems/MDS Sciex (AB Sciex) with Turbo V ion source and TurboIonspray interface were used. The reference compound midazolam, which is metabolized both by phase I and phase II enzymes, was used. The elimination constant (kel), half-life (t1/2), and intrinsic clearance (Clint) were determined[19] (Table S1).
Supplementary Figure 1. […] Test compounds (1 μM, final DMSO concentration 1%) were incubated at 37 °C with shaking at 100 rpm. Four time points over 120 minutes have been analyzed. The reactions were stopped by adding 420 μL of acetonitrile-water mixture (90:10). Supernatants were analyzed by the HPLC system coupled with a tandem mass spectrometer. The percentage (in % of initial concertation) of the test compounds remaining after incubation in plasma and their half-lives (t1/2) were calculated. […] The stability of the compound was tested in human liver S9 fraction. Cofactors were used such as UDPGA (for glucuronidation), PAPS (for sulfation), and reduced glutathione (for conjugation of GSH). Compounds were tested in triplicate with or without NADPH. Propantheline and midazolam were used as unstable control compounds in the experiments. Data represent the means±S.D. from at least three independent samples.

hERG potassium channel, sequence (Q12809 whole entry): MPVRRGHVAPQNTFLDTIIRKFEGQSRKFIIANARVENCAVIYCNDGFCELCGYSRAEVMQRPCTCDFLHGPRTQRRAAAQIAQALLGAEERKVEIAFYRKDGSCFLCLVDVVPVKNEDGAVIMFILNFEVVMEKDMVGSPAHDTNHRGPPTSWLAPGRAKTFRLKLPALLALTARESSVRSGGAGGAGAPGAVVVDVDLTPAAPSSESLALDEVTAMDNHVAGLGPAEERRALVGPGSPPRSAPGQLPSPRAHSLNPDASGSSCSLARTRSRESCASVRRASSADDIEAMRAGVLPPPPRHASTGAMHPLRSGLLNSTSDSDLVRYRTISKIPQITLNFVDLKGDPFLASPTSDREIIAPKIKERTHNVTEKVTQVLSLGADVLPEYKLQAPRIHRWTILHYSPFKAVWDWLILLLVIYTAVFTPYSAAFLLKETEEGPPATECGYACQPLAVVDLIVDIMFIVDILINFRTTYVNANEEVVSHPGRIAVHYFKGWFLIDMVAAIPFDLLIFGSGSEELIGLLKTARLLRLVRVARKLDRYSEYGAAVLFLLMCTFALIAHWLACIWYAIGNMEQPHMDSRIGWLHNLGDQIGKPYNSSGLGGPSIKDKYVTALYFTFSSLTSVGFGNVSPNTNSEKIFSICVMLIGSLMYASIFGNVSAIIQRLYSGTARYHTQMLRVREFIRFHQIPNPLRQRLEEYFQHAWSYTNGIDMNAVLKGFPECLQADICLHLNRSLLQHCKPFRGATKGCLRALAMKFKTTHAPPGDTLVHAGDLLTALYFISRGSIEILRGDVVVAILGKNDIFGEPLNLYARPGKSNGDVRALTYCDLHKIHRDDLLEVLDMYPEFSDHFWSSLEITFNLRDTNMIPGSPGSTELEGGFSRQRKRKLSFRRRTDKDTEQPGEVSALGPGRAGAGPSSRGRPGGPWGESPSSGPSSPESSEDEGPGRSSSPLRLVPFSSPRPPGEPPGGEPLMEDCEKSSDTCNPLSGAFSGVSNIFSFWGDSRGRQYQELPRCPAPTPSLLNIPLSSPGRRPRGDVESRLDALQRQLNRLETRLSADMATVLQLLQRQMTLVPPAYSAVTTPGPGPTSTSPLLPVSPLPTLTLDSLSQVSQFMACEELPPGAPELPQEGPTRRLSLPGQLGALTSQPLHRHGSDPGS
T3 sequence (O75469 108-434): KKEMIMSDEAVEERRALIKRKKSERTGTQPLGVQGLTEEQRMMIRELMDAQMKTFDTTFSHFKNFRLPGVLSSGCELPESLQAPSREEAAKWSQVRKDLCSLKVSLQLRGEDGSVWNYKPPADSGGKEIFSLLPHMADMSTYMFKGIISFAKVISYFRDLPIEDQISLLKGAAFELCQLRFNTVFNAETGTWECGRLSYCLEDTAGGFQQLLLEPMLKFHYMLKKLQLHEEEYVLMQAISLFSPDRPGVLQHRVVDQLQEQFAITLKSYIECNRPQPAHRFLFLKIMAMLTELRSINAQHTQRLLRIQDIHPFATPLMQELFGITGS
T2 sequence (O75469 whole entry S208W/S247W/C284W, the tested form may be a part): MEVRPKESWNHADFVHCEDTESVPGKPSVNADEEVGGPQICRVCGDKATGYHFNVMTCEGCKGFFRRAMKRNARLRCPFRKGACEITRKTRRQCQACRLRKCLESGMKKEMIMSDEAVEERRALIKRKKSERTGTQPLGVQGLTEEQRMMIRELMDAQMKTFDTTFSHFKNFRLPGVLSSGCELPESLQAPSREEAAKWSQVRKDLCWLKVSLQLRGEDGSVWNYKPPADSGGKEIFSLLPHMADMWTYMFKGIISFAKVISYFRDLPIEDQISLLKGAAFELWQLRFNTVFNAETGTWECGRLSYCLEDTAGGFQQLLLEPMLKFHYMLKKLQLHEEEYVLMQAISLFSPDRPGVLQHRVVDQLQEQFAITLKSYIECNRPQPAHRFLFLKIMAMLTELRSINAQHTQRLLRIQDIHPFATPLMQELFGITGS

With `NC(=O)c1cc(Cn2cc(-c3c(-c4ccc(Cl)cc4)nc4cc(F)ccn34)nn2)ccc1Cl` [MI-883, 2-chloro-5-((4-(2-(4-chlorophenyl)-7-fluoroimidazo[1,2-a]pyridin-3-yl)-1H-1,2,3-triazol-1-yl)methyl)benzamide] the “hERG IC50” value (hERG potassium channel) was “could not be defined”, the “hERG assay, inhibition of hERG potassium channel activity” value (hERG potassium channel) was “no significant inhibition up to 100 µM” and the “inhibition of CYP2B6 activity” value (Human recombinant CYP2B6) was “does not suppress”. For the same molecule, the “Inhibition assays, CYP2B6 activity (replicates)” value (from here on “Inhibition assays”) (Human recombinant CYP2B6; M 0) was 129 and 112 and 119, the “Inhibition assays” value (Human recombinant CYP2B6; M 0.5) was 112 and the “Inhibition assays” value (Human recombinant CYP2B6; M 0.5, listed as MI 883) was 104 and 118. For the same molecule, the “Inhibition assays” value (Human recombinant CYP2B6; M 1) was 114 (2×) and 110, the “Inhibition assays” value (Human recombinant CYP2B6; M -0.5) was 102 and 120 and 140 and the “Inhibition assays” value (Human recombinant CYP2B6; M -1) was 98. The “Inhibition assays” value (Human recombinant CYP2B6; M -1, listed as MI 883) was 104 and 111, the “Inhibition assays” value (Human recombinant CYP2B6; M -2) was 100 and the “Inhibition assays” value (Human recombinant CYP2B6; M -2.5) was 100. For the same molecule, the “Inhibition assays” value (Human recombinant CYP2B6; M -3) was 100, the “Inhibition assays” value (Human recombinant CYP2B6; M -3.5) was 100 and the “Inhibition assays” value (Human recombinant CYP2B6; M -4) was 100. The “Inhibition assays” value (Human recombinant CYP2B6; M -4.5) was 100, the “inhibition of constitutive activity of LBP-obstructed mutant PXR” value [1] was “failure of MI-883 to inhibit” and the “PXR/DRIP2025 (MED1) two-hybrid activity, replicates” value (PXR/MED1; MI-883 30 μM) was 0.42 and 0.46 and 0.18 and 0.3 and 0.2. For the same molecule, the “PXR/DRIP2025 (MED1) two-hybrid activity, replicates” value (PXR/MED1; single agent: RIF (10 µM), MI-883 10 μM) was 0.33 and 0.2 and 0.19 and 0.27 and 0.23, the half-life at 2 µM ([2]; human, liver S9 fraction) was 2.85 h and the microsomal CLint at 2 µM ([2]; human, liver S9 fraction) was 2 µL/min/mg. For the same molecule, the “Stability in S9 fraction (human liver), % remaining” value ([2]; time 0 (min), 2 μM) was 100, the “Stability in S9 fraction (human liver), % remaining” value ([2]; time 20) was 100 and the “Stability in S9 fraction (human liver), % remaining” value ([2]; time 40) was 92. The “Stability in S9 fraction (human liver), % remaining” value ([2]; time 60) was 96 and the “Stability in S9 fraction (human liver), % remaining” value ([2]; time 120) was 84.
